This is an account of results in BindingDB's records for patent US20240351997 (Shanghai Qilu Pharmaceutical Research and Development Centre, 2024).

The target in the test is T1, Protein mono-ADP-ribosyltransferase TIPARP (Homo sapiens, UniProt Q7Z3E1).
T1 sequence (Q7Z3E1 whole entry): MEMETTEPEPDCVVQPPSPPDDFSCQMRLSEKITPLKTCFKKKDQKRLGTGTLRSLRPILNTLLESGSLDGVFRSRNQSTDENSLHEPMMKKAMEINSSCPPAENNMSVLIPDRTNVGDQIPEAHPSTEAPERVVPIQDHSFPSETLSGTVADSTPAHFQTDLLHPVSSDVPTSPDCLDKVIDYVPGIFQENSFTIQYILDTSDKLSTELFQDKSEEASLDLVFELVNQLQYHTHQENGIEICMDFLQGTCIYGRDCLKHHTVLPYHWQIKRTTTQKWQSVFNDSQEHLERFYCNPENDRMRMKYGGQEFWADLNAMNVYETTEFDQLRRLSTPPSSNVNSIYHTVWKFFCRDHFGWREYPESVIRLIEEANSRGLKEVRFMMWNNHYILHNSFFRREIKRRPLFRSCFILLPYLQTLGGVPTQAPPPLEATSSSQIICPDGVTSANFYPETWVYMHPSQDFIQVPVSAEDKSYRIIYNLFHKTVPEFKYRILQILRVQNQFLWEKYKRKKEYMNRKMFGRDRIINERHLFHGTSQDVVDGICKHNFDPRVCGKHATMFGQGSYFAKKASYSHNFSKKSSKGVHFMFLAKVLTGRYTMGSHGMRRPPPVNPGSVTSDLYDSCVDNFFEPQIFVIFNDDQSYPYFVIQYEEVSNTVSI
The test is described as follows: In Vitro Enzymology Experiment of PARP2, 3, 5A, 5B, 7, 12, and 15. As for the experimental part:
1. Preparation of 384-well histone-coated plate: 25 μL of histone solution was added to each well, and the plate was incubated overnight at 4° C.2. Preparation of PBST buffer, blocking buffer, and assay buffer3. The 384-well histone-coated plate was washed three times with PBST buffer. The plate was blocked by 50 μL of blocking buffer for 1 hour at room temperature. The plate was then washed three times with PBST buffer.4. Compound preparation:2000× compound was prepared in a 96-well source plate. 50 nL of the compound was transferred from the source plate to a 96-well intermediate plate, and 39.95 μL of assay buffer was added to each well. The plate was shaken well and centrifuged at 1000 rpm for 1 minute.5 μL of compound DMSO solution was transferred to each well.5. […] Detection:25 μL of Stre-HRP was added.The plate was incubated at room temperature for 1 hour and washed three times with PBS buffer.25 μL of QuantaRed Enhancer mix was added. The plate was incubated for 10 minutes.2.5 μL of QuantaRed Stop Solution was added to terminate the peroxidase reaction, and the plate was shaken for 10 to 30 seconds.7. […] Data processingUsing equation (1) to fit the data in Excel to obtain inhibition valuesinh%=(Max-Signal)/(Max-Min)*100Equation(1)Using equation (2) to fit the data in XL-Fit to obtain IC50 valuesY=Bottom+(Top-Bottom)/(1+(IC5 0/X)*HillSlopeEquation(2)Y is the percentage of inhibition, and X is the compound concentration.

In the case of `Nc1cc(C(F)(F)F)cnc1N1CCN(C(=O)OCCc2c[nH]c(=O)c(C(F)(F)F)c2)CC1` [US20240351997, Example 131], the concentration for half-maximal inhibition (IC50) – broadly, the concentration needed to halve the response being measured – was determined as 1.3 nM.

`O=C(Oc1cccc(-c2c[nH]c(=O)c(C(F)(F)F)c2)c1)N1CCN(c2ncc(C(F)(F)F)cn2)[C@@H](CO)C1` [US20240351997, Example 141] showed a half-maximal inhibitory concentration (IC50) of 0.85 nM. The same measure for `O=C(Oc1cccc(-c2c[nH]c(=O)c(C(F)(F)F)c2)c1)N1CCN(c2ncc(C(F)(F)F)cn2)[C@H](CO)C1` [US20240351997, Example 142]: 0.74 nM. The same measure for `O=C(Oc1cccc(-c2c[nH]c(=O)c(C(F)(F)F)c2)c1)N1CCN(c2ncc(C(F)(F)F)cn2)[C@@H](CO)C1` [US20240351997, Example 143]: 0.61 nM; for `Cc1cnc(N2C[C@@H](C)N(C(=O)OCCc3c[nH]c(=O)c(C(F)(F)F)c3)C[C@H]2C)nc1` [US20240351997, Example 167]: 1.5 nM; for `C[C@@H]1CN(c2ncc(C3CC3)cn2)[C@H](C)CN1C(=O)OCCc1c[nH]c(=O)c(C(F)(F)F)c1` [US20240351997, Example 180]: 1 nM.
